According to PubChem BioAssay (NCI):
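Exposure lasted 48 hours, with cells grown in 96-well plates and compounds tested at five concentrations. The concentration for 50% growth inhibition is given as GI50. At the TGI there is no net growth.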

Key:
Experiment in all cases: NCI tumour cell line growth inhibition, 48 h
786-0 renal = test system: 786-0 renal
A498 renal = test system: A498 renal
A549 NSCLC = test system: A549 NSCLC
ACHN renal = test system: ACHN renal
BT-549 breast = test system: BT-549 breast
CAKI-1 renal = test system: CAKI-1 renal
CCRF-CEM leukemia = test system: CCRF-CEM leukemia
COLO 205 colon = test system: COLO 205 colon
DU-145 prostate = test system: DU-145 prostate
EKVX NSCLC = test system: EKVX NSCLC
HCC-2998 colon = test system: HCC-2998 colon
HCT-116 colon = test system: HCT-116 colon
HCT-15 colon = test system: HCT-15 colon
HL-60(TB) leukemia = test system: HL-60(TB) leukemia
HOP-62 NSCLC = test system: HOP-62 NSCLC
HOP-92 NSCLC = test system: HOP-92 NSCLC
HT29 colon = test system: HT29 colon
IGROV1 ovarian = test system: IGROV1 ovarian
K-562 leukemia = test system: K-562 leukemia
KM12 colon = test system: KM12 colon
M14 melanoma = test system: M14 melanoma
MALME-3M melanoma = test system: MALME-3M melanoma
MCF7 breast = test system: MCF7 breast
MDA-MB-435 = test system: MDA-MB-435
MDA-MB-468 breast = test system: MDA-MB-468 breast
MOLT-4 leukemia = test system: MOLT-4 leukemia
NCI-H226 lung = test system: NCI-H226 lung
NCI-H23 lung = test system: NCI-H23 lung
NCI-H460 lung = test system: NCI-H460 lung
NCI-H522 lung = test system: NCI-H522 lung
NCI/ADR-RES ovarian = test system: NCI/ADR-RES ovarian
OVCAR-3 ovarian = test system: OVCAR-3 ovarian
OVCAR-4 ovarian = test system: OVCAR-4 ovarian
OVCAR-5 ovarian = test system: OVCAR-5 ovarian
OVCAR-8 ovarian = test system: OVCAR-8 ovarian
PC-3 prostate = test system: PC-3 prostate
RPMI-8226 leukemia = test system: RPMI-8226 leukemia
RXF 393 renal = test system: RXF 393 renal
SF-268 CNS = test system: SF-268 CNS
SF-295 CNS = test system: SF-295 CNS
SF-539 CNS = test system: SF-539 CNS
SK-MEL-2 melanoma = test system: SK-MEL-2 melanoma
SK-MEL-28 melanoma = test system: SK-MEL-28 melanoma
SK-MEL-5 melanoma = test system: SK-MEL-5 melanoma
SK-OV-3 ovarian = test system: SK-OV-3 ovarian
SN12C renal = test system: SN12C renal
SNB-19 CNS = test system: SNB-19 CNS
SNB-75 CNS = test system: SNB-75 CNS
SR leukemia = test system: SR leukemia
T-47D breast = test system: T-47D breast
TK-10 renal = test system: TK-10 renal
U251 CNS = test system: U251 CNS
UACC-257 melanoma = test system: UACC-257 melanoma
UACC-62 melanoma = test system: UACC-62 melanoma
UO-31 renal = test system: UO-31 renal

## Cn1cc(-c2cc3nc(-c4cn(C)c5ncc(Br)cc45)cc(N)n3n2)c2ccccc21
786-0 renal
  GI50: 13.4 µM
  TGI: 33.3 µM
A498 renal
  GI50: 8.84 µM
  TGI: 23.7 µM
A549 NSCLC
  GI50: 9.25 µM
  TGI: > 100 µM
ACHN renal
  GI50: 13.5 µM
  TGI: 45.6 µM
BT-549 breast
  GI50: 19.5 µM
  TGI: 47.8 µM
CAKI-1 renal
  GI50: 12.7 µM
  TGI: 48.1 µM
CCRF-CEM leukemia
  GI50: 3.52 µM
  TGI: > 100 µM
COLO 205 colon
  GI50: 16.8 µM
  TGI: 33.8 µM
DU-145 prostate
  GI50: 21.4 µM
  TGI: > 100 µM
EKVX NSCLC
  GI50: 10.1 µM
  TGI: 27.1 µM
HCC-2998 colon
  GI50: 3.74 µM
  TGI: 13.9 µM
HCT-116 colon
  GI50: 7.98 µM
  TGI: 27.6 µM
HCT-15 colon
  GI50: 2530 nM
  TGI: 6.94 µM
HL-60(TB) leukemia
  GI50: 3.53 µM
  TGI: 32.6 µM
HOP-62 NSCLC
  GI50: 14.8 µM
  TGI: 46.5 µM
HOP-92 NSCLC
  GI50: 4.97 µM
  TGI: 25.1 µM
HT29 colon
  GI50: 5.65 µM
  TGI: 20.4 µM
IGROV1 ovarian
  GI50: 11.7 µM
  TGI: 32.6 µM
K-562 leukemia
  GI50: 2940 nM
  TGI: > 100 µM
KM12 colon
  GI50: 6.04 µM
  TGI: 26.7 µM
M14 melanoma
  GI50: 15.3 µM
  TGI: 38.1 µM
MALME-3M melanoma
  GI50: 16.8 µM
  TGI: 32.7 µM
MCF7 breast
  GI50: 5.31 µM
  TGI: 27.3 µM
MDA-MB-435
  GI50: 16.4 µM
  TGI: 34.1 µM
MDA-MB-468 breast
  GI50: 3.71 µM
  TGI: 15.6 µM
MOLT-4 leukemia
  GI50: 3.52 µM
  TGI: 30.9 µM
NCI-H226 lung
  GI50: 15.1 µM
  TGI: 62.7 µM
NCI-H23 lung
  GI50: 15.7 µM
  TGI: 41.3 µM
NCI-H460 lung
  GI50: 7.78 µM
  TGI: 28.1 µM
NCI-H522 lung
  GI50: 12.8 µM
  TGI: 32.7 µM
NCI/ADR-RES ovarian
  GI50: 17.4 µM
  TGI: 76.1 µM
OVCAR-3 ovarian
  GI50: 13.5 µM
  TGI: 28.5 µM
OVCAR-4 ovarian
  GI50: 17.1 µM
  TGI: 59.7 µM
OVCAR-5 ovarian
  GI50: 14.5 µM
  TGI: 35.1 µM
OVCAR-8 ovarian
  GI50: 21.8 µM
  TGI: 85.9 µM
PC-3 prostate
  GI50: 6.58 µM
  TGI: > 100 µM
RPMI-8226 leukemia
  GI50: 13.6 µM
  TGI: > 100 µM
RXF 393 renal
  GI50: 6.13 µM
  TGI: 19.3 µM
SF-268 CNS
  GI50: 13.1 µM
  TGI: 89.6 µM
SF-295 CNS
  GI50: 13.5 µM
  TGI: 31.1 µM
SF-539 CNS
  GI50: 14.1 µM
  TGI: 28.7 µM
SK-MEL-2 melanoma
  GI50: 11.2 µM
  TGI: 26.7 µM
SK-MEL-28 melanoma
  GI50: 15.2 µM
  TGI: 29.1 µM
SK-MEL-5 melanoma
  GI50: 15.1 µM
  TGI: 28.4 µM
SK-OV-3 ovarian
  GI50: 20.4 µM
  TGI: 59.6 µM
SN12C renal
  GI50: 12.8 µM
  TGI: 27.9 µM
SNB-19 CNS
  GI50: 17.8 µM
  TGI: 41.9 µM
SNB-75 CNS
  GI50: 11.9 µM
  TGI: 58.2 µM
SR leukemia
  GI50: 2460 nM
  TGI: > 100 µM
T-47D breast
  GI50: 7.38 µM
  TGI: 30.4 µM
TK-10 renal
  GI50: 13.8 µM
  TGI: 44.9 µM
U251 CNS
  GI50: 5.65 µM
  TGI: 27.4 µM
UACC-257 melanoma
  GI50: 14 µM
  TGI: 30.4 µM
UACC-62 melanoma
  GI50: 11.5 µM
  TGI: 24.8 µM
UO-31 renal
  GI50: 13.1 µM
  TGI: 45.8 µM
